From patent publication US11453660B2, “Androgen receptor and glucocorticoid receptor modulators” (ONCOSTELLAE, S.L., priority 2017, dated 2022)
pIC50: −log10 of the molar value.

What was measured:
[1] = target: T1, Human Glucocorticoid Receptor (Homo sapiens, UniProt P04150); assay: Competition Binding in IM-9 Human Glucocorticoid Receptor (GR IM-9); conditions: cytosol from IM-9 cell line, 1.5 nM [3H]-Dexamethasone, 4° C. for 6 hours
T1 construct: endogenous in cells; host or cells: cytosol from IM-9 cell line
T1 sequence (P04150 1-777): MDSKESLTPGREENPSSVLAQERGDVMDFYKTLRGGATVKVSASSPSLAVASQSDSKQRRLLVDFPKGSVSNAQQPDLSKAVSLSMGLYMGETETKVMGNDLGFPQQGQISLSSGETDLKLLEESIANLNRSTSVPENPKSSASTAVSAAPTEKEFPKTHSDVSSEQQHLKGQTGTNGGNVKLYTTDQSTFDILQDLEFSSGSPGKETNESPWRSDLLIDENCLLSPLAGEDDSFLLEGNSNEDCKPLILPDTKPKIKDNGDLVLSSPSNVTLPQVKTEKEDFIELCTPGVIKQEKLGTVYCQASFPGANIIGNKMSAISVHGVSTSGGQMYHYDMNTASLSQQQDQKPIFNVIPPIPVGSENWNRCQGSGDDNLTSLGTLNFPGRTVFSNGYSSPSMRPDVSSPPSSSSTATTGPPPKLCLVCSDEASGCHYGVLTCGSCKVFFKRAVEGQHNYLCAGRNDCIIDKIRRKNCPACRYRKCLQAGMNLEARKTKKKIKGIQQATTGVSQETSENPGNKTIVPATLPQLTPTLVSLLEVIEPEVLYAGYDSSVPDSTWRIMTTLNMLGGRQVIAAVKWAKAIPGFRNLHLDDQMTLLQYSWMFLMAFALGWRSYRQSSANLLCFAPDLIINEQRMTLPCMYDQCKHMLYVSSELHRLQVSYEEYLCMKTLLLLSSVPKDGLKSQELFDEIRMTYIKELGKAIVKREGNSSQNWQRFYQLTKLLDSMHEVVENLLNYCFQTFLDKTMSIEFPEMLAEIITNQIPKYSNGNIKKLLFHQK
Outline: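 Radioligand competition using 100 μg IM-9 cell cytosol and 1.5 nM [3H]-dexamethasone, incubated 6 h at 4° C in TES/molybdate buffer, pH 7.4. Filtration on PEI-treated GF/B filters, scintillation counting; nonspecific binding defined with 10 μM triamcinolone.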

AR-Receptor = target: T2, AR-Receptor (Homo sapiens, UniProt P10275); assay: Functional Assay AR-Receptor (MDA-MB-453 cells, luciferase); type: cell-based; conditions: antagonist effect in the presence of DHT 1 nM, 24 h, luciferase luminescence, read-out: AR antag KB
T2 sequence (P10275 1-920 Q868H): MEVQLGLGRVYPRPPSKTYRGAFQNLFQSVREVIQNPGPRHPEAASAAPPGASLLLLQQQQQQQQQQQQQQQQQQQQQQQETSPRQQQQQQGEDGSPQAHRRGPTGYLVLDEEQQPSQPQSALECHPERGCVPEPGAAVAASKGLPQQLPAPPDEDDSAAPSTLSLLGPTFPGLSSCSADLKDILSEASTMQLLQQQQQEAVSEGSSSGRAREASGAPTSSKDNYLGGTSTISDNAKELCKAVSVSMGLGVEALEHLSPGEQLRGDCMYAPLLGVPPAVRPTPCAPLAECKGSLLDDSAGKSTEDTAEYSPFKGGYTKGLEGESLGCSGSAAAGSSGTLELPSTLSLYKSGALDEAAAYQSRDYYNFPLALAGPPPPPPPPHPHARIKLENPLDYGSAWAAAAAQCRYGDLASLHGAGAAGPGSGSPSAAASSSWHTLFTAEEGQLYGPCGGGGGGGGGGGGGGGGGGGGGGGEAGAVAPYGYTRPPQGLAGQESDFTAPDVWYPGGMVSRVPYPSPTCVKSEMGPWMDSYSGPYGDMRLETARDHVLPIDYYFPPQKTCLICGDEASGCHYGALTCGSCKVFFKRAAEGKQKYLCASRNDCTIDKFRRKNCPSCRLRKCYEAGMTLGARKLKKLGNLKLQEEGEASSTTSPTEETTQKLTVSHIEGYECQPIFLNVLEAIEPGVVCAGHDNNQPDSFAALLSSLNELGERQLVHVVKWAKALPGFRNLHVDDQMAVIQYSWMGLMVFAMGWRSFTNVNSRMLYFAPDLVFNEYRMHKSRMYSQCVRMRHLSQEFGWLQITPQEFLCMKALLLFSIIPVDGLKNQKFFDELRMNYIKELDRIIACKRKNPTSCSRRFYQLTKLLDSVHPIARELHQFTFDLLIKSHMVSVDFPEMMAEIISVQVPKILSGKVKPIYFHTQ
Description: Functional Assay AR-Receptor
MDA-MB-453 cells were cultured in DMEM (ATCC, ref 30-2002), 10% FBS, 1% penicillin, 1% streptomycin, 75 μg/ml gentamycin.
The day before performing assay, the cells were trypsinized and seeded in a 384-well plate (Greiner, ref 781098) (8000 cells/well) in 50 μl of complete culture medium. Cells were stores at 37° C. in a 5% CO2 atmosphere overnight.
The medium was replaced by 50 μl complete growth medium with 0.1% FBS. Compounds were dispensed with Echo 550 (Labcyte) and incubated for 24 h at 37° C. in a 5% CO2 atmosphere. Antagonist effect was measured in the presence of DHT 1 nM.
After incubation, assay medium removed and 20 μl of 1× Promega lysis buffer were added to each well. The plate was incubated 15 minutes at RT and quick-frozen to −80° C. and the thaw to room temperature. 50 μl of luciferase substrate (E4550, Promega) were added to each well and luminescence (integration time 1000 msec) was read in an EnSpire multilabel reader (Perkin Elmer).

pIC50 [1]	Kb (AR-Receptor)	Compound
6.00 to 7.00	≥ 1000 nM	CC(=O)C1=C(C)NC(C)=C(C(=O)OCc2ccc(Cl)nc2)C1c1csc2ncccc12 (stereo not drawn) [Example C74, (6-chloropyridin-3-yl)methyl 5-acetyl-2,6-dimethyl-4-(thieno[2,3-b]pyridin-3-yl)-1,4-dihydropyridine-3-carboxylate]
6.00 to 7.00	≥ 1000 nM	CC(=O)C1=C(C)NC(C)=C(C(=O)OCc2cccc(N3CCOCC3)c2)C1c1csc2ncccc12 (stereo not drawn) [Example C75, 3-morpholinobenzyl 5-acetyl-2,6-dimethyl-4-(thieno[2,3-b]pyridin-3-yl)-1,4-dihydropyridine-3-carboxylate]
> 7.00	≥ 1000 nM	CC(=O)C1=C(C)NC(C)=C(C(=O)OC2CCC(F)(F)CC2)C1c1csc2ncccc12 (stereo not drawn) [Example C79, 4,4-difluorocyclohexyl 5-acetyl-2,6-dimethyl-4-(thieno[2,3-b]pyridin-3-yl)-1,4-dihydropyridine-3-carboxylate]
> 7.00	≥ 1000 nM	COC(=O)C1=C(C2CC2)NC(C2CC2)=C(C#N)C1c1csc2c(C#N)cccc12 (stereo not drawn) [Example C107, Methyl 5-cyano-4-(7-cyanobenzo[b]thiophen-3-yl)-2,6-dicyclopropyl-1,4-dihydropyridine-3-carboxylate]
6.00 to 7.00	< 100 nM	CC(=O)C1=C(C)NC(C2CC2)=C(C(=O)OCC2CC2)C1c1csc2cc(C#N)ccc12 (stereo not drawn) [Example C122, Cyclopropylmethyl 5-acetyl-4-(6-cyanobenzo[b]thiophen-3-yl)-2-cyclopropyl-6-methyl-1,4-dihydropyridine-3-carboxylate]
–	100 to 1000 nM	Benzyl 5-acetyl-4-(7-(methoxycarbonyl)benzo[b]thiophen-3-yl)-2,6-dimethyl-1,4-dihydropyridine-3-carboxylate [Example J38]

The remaining lines, values behind:

Compound	pIC50 [1]	Kb (AR-Receptor)
CC(=O)C1=C(C)NC(C)=C(C(=O)OCc2cccnc2)C1c1csc2ncccc12 (stereo not drawn) [Example C61, Pyridin-3-ylmethyl 5-acetyl-2,6-dimethyl-4-(thieno[2,3-b]pyridin-3-yl)-1,4-dihydropyridine-3-carboxylate]	≤ 6.00	100 to 1000 nM
CC(=O)C1=C(C)NC(C)=C(C(=O)OCc2ccncc2)C1c1csc2ncccc12 (stereo not drawn) [Example C64, Pyridin-4-ylmethyl 5-acetyl-2,6-dimethyl-4-(thieno[2,3-b]pyridin-3-yl)-1,4dihydropyridine-3-carboxylate]	≤ 6.00	100 to 1000 nM
CC(=O)C1=C(C)NC(C)=C(C(=O)N(C)Cc2ccccc2)C1c1csc2ncccc12 (stereo not drawn) [Example C80, 5-Acetyl-N-benzyl-N,2,6-trimethyl-4-(thieno[2,3-b]pyridin-3-yl)-1,4-dihydropyridine-3-carboxamide]	≤ 6.00	≥ 1000 nM
CC(=O)C1=C(C)NC(C)=C(C(=O)OCc2cccc(CN3CCN(C)CC3)c2)C1c1csc2c(Br)cccc12 (stereo not drawn) [Example C108, 3-((4-methylpiperazin-1-yl)methyl)benzyl 5-acetyl-4-(7-bromobenzo[b]thiophen-3-yl)-2,6-dimethyl-1,4-dihydropyridine-3-carboxylate]	> 7.00	≥ 1000 nM
CC(=O)C1=C(C)NC(N)=C(C(=O)OC2CCCC2)C1c1csc2c(Br)cccc12 (stereo not drawn) [Example D6, Cyclopentyl 5-acetyl-2-amino-4-(7-bromobenzo[b]thiophen-3-yl)-6-methyl-1,4-dihydropyridine-3-carboxylate]	6.00 to 7.00	≥ 1000 nM
COC(=O)C1=C(C)NC(N)=C(C(=O)OC)C1c1csc2c(C#N)cccc12 (stereo not drawn) [Example D7, Dimethyl 2-amino-4-(7-cyanobenzo[b]thiophen-3-yl)-6-methyl-1,4-dihydropyridine-3,5-dicarboxylate]	> 7.00	≥ 1000 nM
CC(=O)C1=C(C)NC(C)=C(C(=O)OCc2ccc(-c3ccncc3)nc2)C1c1csc2ncccc12 (stereo not drawn) [Example L9, [2,4′-bipyridin]-5-ylmethyl 5-acetyl-2,6-dimethyl-4-(thieno[2,3-b]pyridin-3-yl)-1,4-dihydropyridine-3-carboxylate]	–	100 to 1000 nM
